Assays:
[1] = tested on: spinal nerve-ligated rats; assay: Von Frey test in Chung model (spinal nerve ligation) of neuropathic pain; format: in vivo; conditions: for Signs of sedation or toxicity: during pretreatment or testing
Text: The study was designed to evaluate the analgesic efficacy of test compounds in the rat Chung model of neuropathic pain.
Male Sprague Dawley rats (100-125 g) from Harlan (Indianapolis, Ind.) were used in the study. Upon receipt, rats were assigned unique identification numbers and were group housed with 3 rats per cage in polycarbonate cages with micro-isolator filter tops. All rats were examined, handled, and weighed prior to initiation of the study to assure adequate health and suitability. During the course of the study, 12/12 light/dark cycles were maintained, with lights on at 7:00 am EST. The room temperature was maintained between 20 and 23° C. with a relative humidity maintained around 50%. Chow and water were provided ad libitum for the duration of the study.
Reference compound: Gabapentin (100 mg/kg; TRC, Lot No. 1-SWM-154-1) was dissolved in saline and administered acutely on test day (day 8 or 12) 1 hour prior to testing, at a dose volume of 1 ml/kg, p.o.
Test compounds: CHM-65 (5, 15 and 25 mg/kg, Q.D., Lot n/a) was dissolved in sterile injectable saline and administered subcutaneously on days 1, 3, 5 and 8 with the first administration (day 1) occurring 1 hour post-op. On day 8, compound was administered 1 hour prior to testing. The dose volume was 3 ml/kg.
CHM-36 (20 mg/kg, Q.D., Lot n/a) was dissolved in sterile injectable saline and administered subcutaneously on days 1, 3, 5 and 8 with the first administration (day 1) occurring 1 hour post-op. On day 8, compound was administered 1 hour prior to testing. The dose volume was 5 ml/kg.
Artemin (CHMB-1) (0.5 mg/kg, Q.D., Lot n/a) was administered subcutaneously on days 1, 3, 5, 8, 10 and 12 with the first administration (day 1) occurring 1 hour post-op. On day 12, compound was administered 1 hour prior to testing. The dose volume was 0.5 ml/kg.
Under general anesthesia with continuous inhalation of isoflurane, surgery was performed with aseptic procedures in surgery unit. Sterile ophthalmic ointment was used to lubricate the eyes. Animals were observed continuously for the level of anesthesia, testing for the animal's reflex response to tail or paw pinch and closely monitoring the animal's breathing. A heating pad was used to maintain body temperature at 37° C. while the animals recovered from anesthesia. The skin at the area of the lower lumber and sacral level of the rat was shaved and disinfected with betadine and alcohol. A left longitudinal incision at the level next to the vertebral column was made and the left paraspinal muscles were separated. The transverse process of L6 was removed and nearby connective tissue cleaned to expose L5 and L6 spinal nerves. After the nerves were isolated and clearly visualized, 4-0 silk threads were used to ligate the left L5. The muscles were sutured with 4-0 silk threads and the wound closed by staples. All rats received an analgesic (buprenorphine, 0.05 mg/kg, s.c.) immediately before and 6 hours after surgery. Each rat was monitored until awake and moving freely around the recovery chamber. Animals were then single-housed for the duration of the study. Rats began their chronic-treatment regimen (all test groups except gabapentin) 1 hour post-op on surgery day.
Withdrawal from a mechanical stimulus was measured by applying von Frey (VF) filaments of ascending bending force to the plantar surface of the hind paws (ipsilateral and contralateral). A positive response was defined as withdrawal from the von Frey filament. […]

[2] = tested on: sciatic-ligated rats; assay: Von Frey test in Bennett model (chronic constrictive injury of the sciatic nerve) of neuropathic pain; format: in vivo, Male Sprague Dawley rats
Text: The study was designed to evaluate the analgesic efficacy of compound XV (CHM-65) in the Bennett model of neuropathic pain.
Male Sprague Dawley rats (100-125 g) from Harlan (Indianapolis, Ind.) were used in the study. Upon receipt, rats were assigned unique identification numbers and were group housed with 3 rats per cage in polycarbonate cages with micro-isolator filter tops. All rats were examined, handled, and weighed prior to initiation of the study to assure adequate health and suitability. During the course of the study, 12/12 light/dark cycles were maintained, with lights on at 7:00 am EST. The room temperature was maintained between 20 and 23° C. with a relative humidity maintained around 50%. Chow and water were provided ad libitum for the duration of the study. […]
This surgery was performed according to Bennett and Xie (1988). […] Each rat was monitored until awake and moving freely around the recovery chamber. […]
Withdrawal from a mechanical stimulus was measured by applying von Frey (VF) filaments of ascending bending force to the plantar surface of the hind paws (ipsilateral and contralateral). […]
Data were analyzed by one-way analysis of variance (ANOVA) followed by Fisher PLSD post-hoc comparisons. […]

[3] = tested on: animals; conditions: systemic administration in animals; cited from earlier work
[4] = tested on: peripheral neuron populations (dorsal root, trigeminal, nodose, superior cervical ganglia) and cultured fetal ventral mesencephalic DA neurons; conditions: cited from earlier work
[5] = tested on: rats with SNL (spinal nerve ligation); conditions: repeated injection; cited from earlier work

NCC1(CC(=O)O)CCCCC1 [gabapentin, Gabapentin]
Signs of sedation or toxicity ([1]; CHM-36 study): not observed | Signs of sedation or toxicity ([1]; artemin study): not observed | ipsilateral paw withdrawal threshold compared to vehicle ([1]; gabapentin 100 mg/kg p.o., acute on test day, 1 hour prior to testing, CHM-36 study, FIG. 5): significantly increased | ipsilateral paw withdrawal threshold compared to vehicle ([1]; gabapentin 100 mg/kg p.o., acute on test day, 1 hour prior to testing, artemin study, FIG. 7): significantly increased | Signs of sedation or toxicity ([2]; during pretreatment or testing, Bennett model study): not observed | ipsilateral paw withdrawal threshold compared to vehicle ([2]; gabapentin 100 mg/kg p.o., acute on day 12, 1 hour prior to testing, FIG. 3): significantly increased

CHMB-1: GDNF family ligand artemin (ARTN), neurotrophic factor signalling through GFR α 3/RET
restoration of nociceptive and sensorimotor functions [3]: essentially complete and persistent restoration | survival of peripheral neuron populations and cultured fetal ventral mesencephalic DA neurons [4]: promote the survival | ipsilateral paw withdrawal threshold compared to vehicle ([1]; 0.5 mg/kg s.c. on days 1, 3, 5, 8, 10 and 12, tested day 12, 1 hour after administration, FIG. 7): significantly increased | behavioral responses to light touch and noxious thermal stimuli [5]: dose-dependent normalization | behavioral signs of toxicity [5]: without producing behavioral signs of toxicity
